# Test results published in patent publication US8440794B2, “Peptide sequences, their branched form and use thereof for antimicrobial applications” (Universita' Degli Studi di Siena, priority 2008, dated 2013).
# Where a SMILES comes first, the peptide text is derived from it. Bridges are numbered along the chain shown (N, C = ends). Roman numbers before positions name the chains, in order. [ ]: non-standard residue; d: D form. βAla = NCCC(=O)O
# Legend:
# [1] = test system: P. aeruginosa SC-MDr03-06; format: cell-based, Pseudomonas aeruginosa; conditions: SC-MDr03-06, 24 h
# [2] = test system: P. aeruginosa EF-OBG6-1; format: cell-based, Pseudomonas aeruginosa; conditions: EF-OBG6-1, 24 h
# [3] = test system: P. aeruginosa SC-DMr05-04; format: cell-based, Pseudomonas aeruginosa; conditions: SC-DMr05-04, 24 h
# [4] = test system: E. coli TG1; assay: In vivo antibacterial activity, mice infected ip with lethal amount of E. coli TG1; design: species or system Balb-c mice; conditions: E. coli TG1 1.5×10^9 CFU ip; single dose 10 mg/Kg ip 30 minutes later
# Description: FIG. 4. In vivo antibacterial activity of tetra-branched M33 peptide. A, Balb-c mice (20 g) were intra-peritoneally injected with a lethal amount of E. coli TG1 cells (1.5×10^9 CFU). Continuous line (Ctr) indicates mice only injected ip with bacteria and no M33. Broken line indicates mice injected ip with bacteria and a single injection of M33 peptide 10 mg/Kg 30 minutes later. B, Balb-c mice (20 g) were intra-peritoneally injected with a lethal amount of P. aeruginosa cells (ATCC 27853 1×10^7 CFU). Continuous line (Ctr) indicates mice which only received bacteria; other groups received bacteria and a single dose of M33 30 minutes later (see figure for doses of M33). C, Balb-c mice (20 g) were intra-peritoneally injected with a lethal amount of P. aeruginosa cells (multi drug resistant VR 147 clinical isolate, 1.5×10^7 CFU). Continuous line (Ctr) indicates mice which only received bacteria; broken line indicates mice which received bacteria and a single dose of M33 25 mg/Kg. D, Balb-c mice (20 g) were intra-peritoneally injected with a lethal amount of P. aeruginosa cells (ATCC 27853 1×10^7 CFU). […]
# Tetra-branched M33 peptide was analysed for its antibacterial activity in mice infected with lethal amounts of bacteria. […]
smiles,measurement,setting,value
"CC[C@H](C)[C@H](NC(=O)[C@H](CCCCN)NC(=O)[C@@H](N)CCCCN)C(=O)N[C@@H](CCCNC(=N)N)C(=O)N[C@H](C(=O)N[C@@H](CCCNC(=N)N)C(=O)N[C@@H](CC(C)C)C(=O)N[C@@H](CO)C(=O)N[C@@H](C)C(=O)NCCCC[C@H](NC(=O)[C@H](C)NC(=O)[C@H](CO)NC(=O)[C@H](CC(C)C)NC(=O)[C@H](CCCNC(=N)N)NC(=O)[C@@H](NC(=O)[C@H](CCCNC(=N)N)NC(=O)[C@@H](NC(=O)[C@H](CCCCN)NC(=O)[C@@H](N)CCCCN)[C@@H](C)CC)C(C)C)C(=O)NCCCC[C@H](NC(=O)[C@H](CCCCNC(=O)[C@H](C)NC(=O)[C@H](CO)NC(=O)[C@H](CC(C)C)NC(=O)[C@H](CCCNC(=N)N)NC(=O)[C@@H](NC(=O)[C@H](CCCNC(=N)N)NC(=O)[C@@H](NC(=O)[C@H](CCCCN)NC(=O)[C@@H](N)CCCCN)[C@@H](C)CC)C(C)C)NC(=O)[C@H](C)NC(=O)[C@H](CO)NC(=O)[C@H](CC(C)C)NC(=O)[C@H](CCCNC(=N)N)NC(=O)[C@@H](NC(=O)[C@H](CCCNC(=N)N)NC(=O)[C@@H](NC(=O)[C@H](CCCCN)NC(=O)[C@@H](N)CCCCN)[C@@H](C)CC)C(C)C)C(=O)NCCC(=O)O)C(C)C [M33, KKIRVRLSA] (I: H-KKIRVRLSAKK[βAla]-OH / II: H-KKIRVRLSAK / III: H-KKIRVRLSA / IV: H-KKIRVRLSA; amide I:10-IV:C, I:11-II:C, II:10-III:C; N-terminus assumed)",MIC,[1],3 µM
same,MIC,[2],0.7 µM
same,MIC,[3],1.5 µM
same,Animals protected from signs of sepsis and death (seven-day survival),[4],100%
